The record followed here is patent US8796244B2, “Imidazopyridine derivatives as inhibitors of receptor tyrosine kinases” (Astex Therapeutics Ltd, priority 2008, dated 2014).

Structures are written as SMILES. Counter-ions that a name gives are not always drawn. Like-named read-outs stand apart in the source and are kept apart here.

The subject of assay [1] is LP-1 cell line (FGF-1/Heparin induced pERK). Nature of the assay: Cell-based pERK ELISA, LP-1 cells. As to conditions: Homo sapiens; for IC50: LP-1, read-out: LP-1 pERK ELISA (μM).
Assay [2] relates to parental wild-type Ba/F3 cells. Nature of the assay: Ba/F3 (WT) cell proliferation assay (Alamar Blue). Type of assay: cell-based. Conditions: Mus musculus; for inhibition at 10 µM / inhibition at 3 µM: BaF3, read-out: BaF3 WT prolif, % inhibition. (Alamar Blue is a resazurin reagent that responds to reducing activity.)
Where [3] appears, read: BaF3, 72 h, read-out: BaF3 WT prolif (μM).
Where [4] appears, read: BaF3, 72 hours, Alamar Blue, read-out: BaF3 WT prolif.

Consider `O=C(NCC(F)(F)F)Nc1cccc(-c2cnc3cc(-c4ccc(CCO)cc4)ccn23)c1` [Example 111, 1-(3-{7-[4-(2-Hydroxy-ethyl)-phenyl]-imidazo[1,2-a]pyridin-yl}-phenyl)-3-(2,2,2-trifluoro-ethyl)-urea formate], for which the IC50 in assay [1] came to 0.016 µM; in assay [2] (setting [3]), 0.18 µM.

For `CN(C)c1ccc(-c2ccn3c(-c4cccc(NC(=O)NCC(F)(F)F)c4)cnc3c2)nn1` [Example 113, 1-{3-[7-(6-Dimethylamino-pyridazin-3-yl)-imidazo[1,2-a]pyridin-3-yl]-phenyl}-3-(2,2,2-trifluoro-ethyl)-urea formate], the IC50 in assay [1] worked out at 0.016 µM; in assay [2] (setting [3]), 1.4 µM.

Take `O=C(NCC(F)(F)F)Nc1cccc(-c2cnc3cc(-c4ncccn4)ccn23)c1` [Example 114, 1-{3-[7-(Pyrimidin-2-yl)-imidazo[1,2-a]pyridin-3-yl]-phenyl}-3-(2,2,2-trifluoro-ethyl)-urea hydrochloride]: the IC50 in assay [1] amounted to 0.047 µM; in assay [2] (setting [3]) it was 0.65 µM.

Turning to `Nc1ccc(-c2ccn3c(-c4cccc(NC(=O)NCC(F)(F)F)c4)cnc3c2)nc1` [Example 124, 1-{3-[7-(5-Amino-pyridin-2-yl)-imidazo[1,2-a]pyridin-3-yl]-phenyl}-3-(2,2,2-trifluoro-ethyl)-urea hydrochloride], the IC50 was determined as 0.024 µM in assay [1] and 0.27 µM in assay [2] (setting [3]).

As for `O=C(NCC(F)(F)F)Nc1cccc(-c2cnc3cc(-c4ccc(=O)n(CCO)n4)ccn23)c1` [Example 126, 1-(3-{7-[1-(2-Hydroxy-ethyl)-6-oxo-1,6-dihydro-pyridazin-3-yl]-imidazol[1,2-a]pyridin-3-yl}-phenyl)-3-(2,2,2-trifluoro-ethyl)-urea], the IC50 in assay [1] was 0.98 µM. Moreover, in assay [2], the inhibition (as a rule, the drop in the measured response relative to a control, in per cent) at 10 µM was found to be 3.7%.

Regarding `CNc1ccc(-c2ccn3c(-c4cccc(NC(=O)NCC(F)(F)F)c4)cnc3c2)nn1` [Example 132, 1-{3-[7-(6-Methylamino-pyridazin-3-yl)-imidazo[1,2-a]pyridin-3-yl]-phenyl}-3-(2,2,2-trifluoro-ethyl)-urea], the IC50 in assay [1] turned out to be 0.172 µM. Moreover, the inhibition at 10 µM in assay [2] came to 22.9%.

As to `O=C(NCC(F)(F)F)Nc1cccc(-c2cnc3cc(-c4ccc(N5CCCC(O)C5)nn4)ccn23)c1` (centres unmarked) [Example 133, 1-(3-{7-[6-(3-Hydroxy-piperidin-1-yl)-pyridazin-3-yl]-imidazo[1,2-a]pyridin-3-yl}-phenyl)-3-(2,2,2-trifluoro-ethyl)-urea], the IC50 in assay [1] is 0.0714 µM. Besides, in assay [2], the inhibition at 3 µM came to 34% and the inhibition at 10 µM came to 31%.

`Cc1cnnc(-c2ccn3c(-c4cccc(NC(=O)NCC(F)(F)F)c4)cnc3c2)c1` [Example 137, 1-{3-[7-(5-Methyl-pyridazin-3-yl)-imidazo[1,2-a]pyridin-3-yl]-phenyl}-3-(2,2,2-trifluoro-ethyl)-urea]: the IC50 in assay [1] was found to be 0.034 µM. Moreover, the inhibition at 10 µM in assay [2] is 23%.

As to `COc1cnc(-c2ccn3c(-c4cccc(NC(=O)NCC(F)(F)F)c4)cnc3c2)nc1` [Example 138, 1-{3-[7-(5-Methoxy-pyrimidin-2-yl)-imidazo[1,2-a]pyridin-3-yl]-phenyl}-3-(2,2 ,2-trifluoro-ethyl)-urea], the IC50 in assay [1] came out at 0.038 µM. Besides, the inhibition at 3 µM in assay [2] was 36%.

Turning to `O=C(NCC(F)(F)F)Nc1cccc(-c2cnc3cc(-c4nccnn4)ccn23)c1` [Example 141, 1-[3-(7-[1,2,4]-Triazin-3-yl-imidazo[1,2-a]pyridin-3-yl)-phenyl]-3-(2,2,2-trifluoro-ethyl)-urea], the IC50 in assay [1] amounted to 0.11 µM; in assay [2] (setting [4]), 0.042 µM.

As to `CN(C)CCCOc1ccc(-c2ccn3c(-c4cccc(NC(=O)NCC(F)(F)F)c4)cnc3c2)cn1` [Example 144, 1-(3-{7-[6-(3-Dimethylamino-propoxy)-pyridin-3-yl]-imidazo[1,2-a]pyridin-3-yl}-phenyl)-3-(2,2,2-trifluoro-ethyl)-urea], the IC50 in assay [1] is 0.13 µM; in assay [2] (setting [4]), 3.6 µM.

Turning to `O=C(NCC(F)(F)F)Nc1cncc(-c2cnc3cc(-c4cnn(C5CCNCC5)c4)ccn23)c1` [Example 152, 1-{5-[7-(1-Piperidin-4-yl-1H-pyrazol-4-yl)-imidazo[1,2-a]pyridin-3-yl]-pyridin-3-yl}-3-(2,2,2-trifluoro-ethyl)-urea], in assay [1], the IC50 was 3.3 µM. Besides, the inhibition at 10 µM in assay [2] was 10%.

As to `NC(=O)Nc1cccc(-c2cnc3cc(-c4ccc(F)cc4)ccn23)c1` [Example 154, {3-[7-(4-Fluoro-phenyl)-imidazo[1,2-a]pyridin-3-yl]-phenyl}-urea], the IC50 in assay [1] was determined as 0.086 µM; in assay [2] (setting [4]), 5.6 µM.

Turning to `CNc1ncc(-c2ccn3c(-c4cccc(NC(=O)NCC(F)(F)F)c4)cnc3c2)cc1C` [Example 161], the IC50 amounted to 0.01 µM in assay [1] and 0.15 µM in assay [2] (setting [4]).

With `CCNC(=O)Nc1cccc(-c2cnc3cc(-c4ncc(F)c(N)n4)ccn23)c1` [Example 163], in assay [1], the IC50 was found to be 0.22 µM. Moreover, in assay [2], the inhibition at 3 µM worked out at 38% and the inhibition at 10 µM was determined as 11%.

With `O=C(NCC(F)(F)F)Nc1cccc(-c2cnc3cc(-c4ncc(F)c(NCCO)n4)ccn23)c1` [Example 164], the IC50 in assay [1] came to 0.26 µM; in assay [2] (setting [4]) it was 4.2 µM.

On to `Nc1nc(-c2ccn3c(-c4cccc(NC(=O)NC5CC5)c4)cnc3c2)ncc1F` [Example 166], for which, in assay [1], the IC50 turned out to be 0.29 µM. The inhibition at 10 µM in assay [2] was determined as 0%.

Regarding `NC(=O)Nc1cccc(-c2cnc3cc(-c4ncc(F)c(N)n4)ccn23)c1` [Example 167], the inhibition at 10 µM in assay [1] (LP-1, read-out: LP-1 pERK ELISA, % inhibition) came to 60%; in assay [2], 0%.

Turning to `Nc1nc(-c2ccn3c(-c4cncc(NC(=O)NCC(F)(F)F)c4)cnc3c2)ncc1F` [Example 168], the IC50 in assay [1] stood at 0.43 µM. In assay [2], the inhibition at 10 µM is 0%.

For `COc1cnc(-c2ccn3c(-c4cccc(NC(=O)NCC(F)(F)F)c4)cnc3c2)nc1N` [Example 173], in assay [1], the IC50 came to 0.052 µM. In assay [2], the inhibition at 3 µM was 29.5% and the inhibition at 10 µM is 22%.

In the case of `Nc1cnc(-c2ccn3c(-c4cccc(NC(=O)NCC(F)(F)F)c4)cnc3c2)nc1` [Example 174], the figures for the IC50 in assay [1] and in assay [2] (setting [4]) were 0.49 µM and 1.5 µM, respectively.

For the compound `Cc1cnc(-c2ccn3c(-c4cccc(NC(=O)NCC(F)(F)F)c4)cnc3c2)nc1N` [Example 175], the IC50 in assay [1] was 0.077 µM; in assay [2] (setting [4]) it was 10 µM.

As to `Cc1cnc(N)nc1-c1ccn2c(-c3cccc(NC(=O)NCC(F)(F)F)c3)cnc2c1` [Example 176], the IC50 in assay [1] is 0.33 µM. The inhibition at 10 µM in assay [2] was 59%.

Consider `Nc1nc(-c2ccn3c(-c4cccc(NC(=O)NCC(F)(F)F)c4)cnc3c2)ncc1C(F)(F)F` [Example 178], for which the IC50 worked out at 0.018 µM in assay [1] and 4.52 µM in assay [2] (setting [4]).

Turning to `COc1nccc(-c2ccn3c(-c4cccc(NC(=O)NCC(F)(F)F)c4)cnc3c2)n1` [Example 181], the results for the IC50 in assay [1] and in assay [2] (setting [4]) were 0.046 µM and 0.49 µM, respectively.

For the compound `NCCNc1nc(-c2ccn3c(-c4cccc(NC(=O)NCC(F)(F)F)c4)cnc3c2)ncc1F` [Example 182], the IC50 is 2.5 µM in assay [1] and 10 µM in assay [2] (setting [4]).

Turning to `COc1cc(-c2ccn3c(-c4cccc(NC(=O)NCC(F)(F)F)c4)cnc3c2)ncn1` [Example 183], the results for the IC50 in assay [1] and in assay [2] (setting [4]) were 0.028 µM and 0.29 µM, respectively.

As to `NC(=O)c1ccnc(-c2ccn3c(-c4cccc(NC(=O)NCC(F)(F)F)c4)cnc3c2)n1` [Example 185], the IC50 in assay [1] came out at 0.14 µM. Also, the inhibition at 3 µM in assay [2] was 0%.
